According to US20030206968A1, “Fungicidal mixtures” (priority 1999, published 2003):

How the values were obtained:
Assay type in all cases: in vivo
Septoria tritici = assay: Field test, Septoria tritici on wheat
Protocol: (§1) The trials are carried out under greenhouse (Examples 1 to 32) or field conditions (Examples 33 to 40) in residual or curative applications. The fungicides are applied in single treatments, or in a combination comprising an azolopyrimidine of formula I and a compound selected from the classes (A), (B) and (C) as defined above. The compounds are applied in form of an aqueous spray mix obtained from a concentrated formulation or the technical material.
(§2) For the field study formulated Azolopyrimidine A, B or C and formulated compounds from the classes (A), (B) and (C) were used.
(§3) Assessments of the diseases took place at the indicated day after the application of the compounds. Per cent infected leaf area infected was evaluated. The efficacy of the compounds/compounds mixtures to control the diseases was calculated by using the formula given above under item 4: […]
(§4) Synergy was calculated using the % disease control values of specific treatments for the two COLBY formula given hereinabove
(§5) The compounds are applied according to good agricultural practice in the form of an aqueous spray mix obtained from a concentrated formulation or the technical material at a rate of 400 l/ha. The disease control is evaluated according to the formula given for the greenhouse tests.
Fungicidal efficacy of the mixture of Azolopyrimidine C+metconazole in the field against Septoria tritici on wheat The tank mix was obtained from an EC formulation containing 150 g Azolopyrimidine C per liter and a SL formulation containing 60 g metconazole per liter. The observed and expected efficacies with different rates are given in Table XXXIVa (19 days after application) and Table XXXIVb (25 days after application):
Fungicidal efficacy of the mixture of (S)-Azolopyrimidine C+kresoxim methyl in the field against Septoria tritici on wheat The tank mix was obtained from a SC formulation containing 100 g (S)-Azolopyrimidine C per liter and a WG formulation containing 500 g kresoxim methyl per kg. The observed and expected efficacies with different rates are given in Tables XXXVa (7 days after application), XXXVb (22 days after application), XXXVc (34 days after application), and XXXVd (41 days after application):
(§6) Fungicidal efficacy of the mixture of Azolopyrimidine A and different cereal fungicides the field against Septoria tritici on wheat 15 days after application The tank mix was obtained from an SC formulation containing 100 g Azolopyrimidine A per liter and commercially available formulations of metconazole, epoxiconazole or propiconazole, respectively.

Blumeria graminis [1] = assay: Field test, Blumeria graminis on wheat; conditions: 15 days after application
Protocol: as §1, §2, §3, §4, §5
(§7) Fungicidal efficacy of the mixture of (S)-Azolopyrimidine C+cyproconazole in the field against Blumeria graminis on wheat 17 days after application The tank mix was obtained from a SC formulation containing 100 g (S)-Azolopyrimidine C per liter and an EC formulation containing 60 g cyproconazole per liter.
as §7, with “C+azoxystrobin” for “C+cyproconazole”, “a SC” for “an EC”, “250” for “60”, “azoxystrobin” for “cyproconazole”, “kg.” for “liter.”
as §6, with “fungicides in” for “fungicides”, “Blumeria graminis” for “Septoria tritici”, “kresoxim methyl,” for “propiconazole,”

Puccinia recondita [2] = assay: Field test, Puccinia recondita on wheat; conditions: 50 days after application
Protocol: as §1, §2, §3, §4, §5
as §6, with “fungicides in” for “fungicides”, “Puccinia recondita” for “Septoria tritici”, “50” for “15”, “epoxiconazole, propiconazole” for “epoxiconazole”, “kresoxim methyl,” for “propiconazole,”

Puccinia recondita [3] = assay: Greenhouse, Puccinia recondita on wheat, 1 day curative, plants sprayed twice, once with each compound; conditions: Example 12
Protocol: as §1
(§8) 1. Seed is planted in 6 cm diameter plastic pots and maintained in the greenhouse.
(§9) 2. When the primary leaf is fully expanded in the case of cereals or several leaves are present in the case of dicots, formulated test compounds are sprayed with a three nozzle overhead fungicide sprayer to near run-off. Alternatively, a single nozzle overhead track sprayer is used for application of the compounds to cereals at a rate of 200 l/ha. Plants are then allowed to air-dry.
(§10) 3. Inoculation precedes treatment in the case of curative evaluations and follows treatment in case of residual evaluations. For inoculation of powdery mildew disease, plants are set up on greenhouse benches with bottom watering mats and inoculated by dusting them with conidia from infected plants. Between inoculation and treatment for curative evaluations and between treatment and inoculation for residual evaluations, plants are maintained in the greenhouse with bottom watering.
(§11) For inoculation of non-powdery mildew diseases, an aqueous spore suspension of the pathogen is applied to the plant and the plants are kept 1-2 days in a moist infection chamber before being returned to the greenhouse where they are maintained by bottom watering.
(§12) 4. Disease on the foliage as percent leaf area with disease symptoms/signs is evaluated about 7 days after inoculation. In the case of wheat, the tips and bases of the leaves are excluded from the evaluation. [formula]
(§13) 1. Technical compounds are formulated in a solvent/surfactant system consisting of 5% acetone and 0.05% Tween 20 in deionized water. Compounds are dissolved in acetone prior to addition of the water; the Tween 20 can be added through either the acetone or the water. Dilutions are made using the solvent/surfactant system. Formulated compounds are prepared using deionized water.
(§14) 2. Two kinds of controls are included: Plants treated with the solvent/surfactant solution and inoculated (Solvent Blank). Untreated plants which are inoculated (Inoculated Control).
as §3, §4
Fungicidal efficacy of the mixture of Azolopyrimidine C+kresoxim methyl (1 day curative) against Puccinia recondita on wheat Plants sprayed twice, once with each compound. The tank mixes were obtained from a SC formulation containing 100 g Azolopyrimidine C per liter and a WG containing 500 g kresoxim methyl per kg.

Blumeria graminis [4] = assay: Greenhouse, Blumeria graminis on wheat, 2 day residual; conditions: Example 3
Protocol: as §1, §8, §9, §10, §12
1. […]
as §3
Synergy was calculated using the % disease control values of specific treatments for the two COLBY formula given hereinabove […]

Botrytis cinerea = assay: Apple fruit Botrytis test, Botrytis cinerea on apple fruits, 3 day residual
Protocol: 1. Apples (Malus X domestica Borkh.) variety Golden Delicious are disinfected by washing them briefly in 70% ethanol. After drying the apples are marked with four short equal-distant lines indicating the positions to be wounded.
2. Corresponding with the marks, four holes are poked around the apple equator with a pipette tip. 10 μl of the treatment solution are pipetted into each hole.
3. Three hours after application, 10 μl of a conidial suspension of Botrytis cinerea are pipetted into each. For incubation, the treated/inoculated apples are set up for five days.
4. Disease occurs as rotten apple tissue surrounding the inoculated wounds. The diameter of the rotten zone around each wound is measured.
1. Technical compounds are formulated in a solvent system consisting of 5% acetone and 0.05% Tween 20 in deionized water. Compounds are dissolved in acetone prior to dilution with water. Formulated compounds are prepared using deionized water.
2. Three kinds of controls are included:
Assessments of the diseases took place at the indicated day after the application of the compounds. Per cent infected leaf area infected was evaluated. The efficacy of the compounds/compounds mixtures to control the diseases was calculated by using the formula: [formula]
as §4
Fungicidal efficacy of the mixture of Azolopyrimidine A+vinclozolin (3 day residual) against Botrytis cinerea on apple fruits The tank mix was obtained from technical material of Azolopyrimidine A and a WG formulation containing 500 g vinclozolin per kg.
Fungicidal efficacy of the mixture of Azolopyrimidine A+cyprodinil (3 day residual) against Botrytis cinerea on apple fruits The tank mix was obtained from technical material of Azolopyrimidine A and a WG formulation containing 750 g cyprodinil per kg.
Fungicidal efficacy of the mixture of Azolopyrimidine A+benomyl (3 day residual) against Botrytis cinerea on apple fruits The tank mix was obtained from technical material of Azolopyrimidine A and a WP formulation containing 500 g benomyl per kg.

Leptosphaeria nodorum = assay: Greenhouse, Leptosphaeria nodorum on wheat, 3 day residual
Protocol: as §1, §8, §9, §10, §11, §12, §13, §14, §3, §4
Fungicidal efficacy of the mixture of Azolopyrimidine A+fenpropimorph (3 day residual) against Leptosphaeria nodorum on wheat The tank mix was obtained from technical material of Azolopyrimidine A and an EC formulation containing 750 g fenpropimorph per liter.
Fungicidal efficacy of the mixture of Azolopyrimidine A+tebuconazole (3 day residual) against Leptosphaeria nodorum on wheat The tank mix was obtained from technical material of Azolopyrimidine A and an EC formulation containing 250 g tebuconazole per liter.

[5] = Azolopyrimidine A 125 g/ha alone

CO/N=C(/C(=O)OC)c1ccccc1COc1ccccc1C [kresoxim methyl]
Observed Efficacy (Septoria tritici; Example 35, 7 days after application, dose rate 100 g/ha): 40% | Observed Efficacy (Septoria tritici; Example 35, 22 days after application, dose rate 100 g/ha): 64% | Observed Efficacy (Septoria tritici; Example 35, 34 days after application, dose rate 50 g/ha): 44% | Observed Efficacy (Septoria tritici; Example 35, 34 days after application, dose rate 100 g/ha): 59% | Observed Efficacy (Septoria tritici; kresoxim methyl 100 g/ha alone, 41 days after application, field, wheat): 92 | Observed Efficacy (Blumeria graminis [1]; kresoxim methyl 100 g/ha alone): 85 | Observed Efficacy (Puccinia recondita [2]; kresoxim methyl 100 g/ha alone): 0 | Observed Efficacy (Puccinia recondita [3]; dose rate 25 g/ha): 0% | Observed Efficacy (Puccinia recondita [3]; dose rate 50 g/ha): 1% | Observed Efficacy (Puccinia recondita [3]; dose rate 100 g/ha): 0% | Observed Efficacy (Puccinia recondita [3]; dose rate 200 g/ha): 1% | Observed Efficacy (Puccinia recondita [3]; dose rate 400 g/ha): 5%

CC1CCN(c2c(-c3c(F)cccc3Cl)c(Cl)nc3ncnn23)CC1 [Azolopyrimidine A, 5-chloro-6-(2-chloro-6-fluorophenyl)-7-(4-methylpiperid-1-yl)-[1,2,4]triazolo[1,5-a]pyrimidine]
Observed Efficacy (Blumeria graminis [4]; dose rate 10 ppm): 14% | Observed Efficacy (Septoria tritici; Azolopyrimidine A 125 g/ha alone, 15 days after application, field, wheat): 63 | Observed Efficacy (Botrytis cinerea; Example 4, dose rate 1 ppm): 0% | Observed Efficacy (Botrytis cinerea; Example 4, dose rate 10 ppm): 33% | Observed Efficacy (Botrytis cinerea; Example 5, dose rate 1 ppm): 0% | Observed Efficacy (Botrytis cinerea; Example 5, dose rate 10 ppm): 33% | Observed Efficacy (Botrytis cinerea; Example 6, dose rate 1 ppm): 0% | Observed Efficacy (Botrytis cinerea; Example 6, dose rate 10 ppm): 0% | Observed Efficacy (Botrytis cinerea; Example 7, dose rate 1 ppm): 0% | Observed Efficacy (Botrytis cinerea; Example 7, dose rate 10 ppm): 25% | Observed Efficacy (Blumeria graminis [1]; [5]): 22 | Observed Efficacy (Leptosphaeria nodorum; Example 1, dose rate 10 ppm): 35% | Observed Efficacy (Leptosphaeria nodorum; Example 1, dose rate 100 ppm): 40% | Observed Efficacy (Leptosphaeria nodorum; Example 2, dose rate 100 ppm): 40% | Observed Efficacy (Puccinia recondita [2]; [5]): 0

CCCC1COC(Cn2cncn2)(c2ccc(Cl)cc2Cl)O1 (stereo not drawn) [propiconazole]
Observed Efficacy (Septoria tritici; propiconazole 63 g/ha alone, 15 days after application, field, wheat): 72 | Observed Efficacy (Puccinia recondita [2]; propiconazole 63 g/ha alone): 49

CC(C)(C)C(O)(CCc1ccc(Cl)cc1)Cn1cncn1 (stereo not drawn) [tebuconazole]
Observed Efficacy (Blumeria graminis [4]; dose rate 0.02 ppm): 2% | Observed Efficacy (Blumeria graminis [4]; dose rate 0.2 ppm): 9% | Observed Efficacy (Leptosphaeria nodorum; Example 2, dose rate 0.02 ppm): 25% | Observed Efficacy (Leptosphaeria nodorum; Example 2, dose rate 0.2 ppm): 19%

Fc1ccc([C@]2(Cn3cncn3)O[C@H]2c2ccccc2Cl)cc1 (racemic) [epoxiconazole]
Observed Efficacy (Septoria tritici; epoxiconazole 63 g/ha alone, 15 days after application, field, wheat): 93 | Observed Efficacy (Blumeria graminis [1]; epoxiconazole 63 g/ha alone): 40 | Observed Efficacy (Puccinia recondita [2]; epoxiconazole 63 g/ha alone): 95
